We go through one compound from patent US20220370636A1, “NICOTINAMIDE ADENINE DINUCLEOTIDE ACTIVATOR AND USE THEREOF” (University of South Florida, priority 2021, published 2022).

In test [1] the test system is C57BL6 mice tibialis anterior muscle. Put plainly: BaCl2 induced tibialis anterior muscle injury in mice. The test is classed as in vivo. The protocol: Saline or 50 μl of 1% BaCl2 was injected in belly region of the muscle to induce inflammation. Muscle damage was assessed by H&E staining at day 7. The percentage of fibers recovered in higher in P7C3 treated group compared with saline treated group (FIG. 1B). The centrally placed nuclei were higher in P7C3 treated group with 3 or higher number of nuclei (FIG. 1C).
P7C3 administration (1 wk, 5 mg/kg bodyweight/day, i.p.) rescued tibialis anterior muscle injury induced by BaCl2 in mice. Administration of P7C3 increased frequency of myofiber number and fusion index as noted by increased centrally-nucleated fibers (FIGS. 1A-1C). Overall, these show the use P7C3, and the efficacy of P7C3 as a drug for muscle repair.

Another test relates to C57Bl/6J wildtype hearts. Description: Ex vivo ischemia reperfusion, post-ischemia exposure in wildtype hearts. The arrangement: species or system mice. As to the method:
Hearts undergoing ex vivo ischemia reperfusion protocol post-exposure with P7C3 (3 μM) were performed as defined above. Hearts were stabilized for 30 min before proceeding to the ischemic phase. Cardiac ischemia was induced by the pause in Krebs-Hanseleit buffer perfusion for 45 min. Reperfusion was induced with the induction of Krebs-Hanseleit buffer at a constant flow of ˜2.2 ml/min for 1 hour. Hearts that underwent P7C3 (3 μM) treatment received 1-hour reperfusion with P7C3 (3 μM) within the Krebs-Hanseleit buffer.

Test [2] relates to db/db mice. Description: Fasting blood glucose, ITT, GTT and insulin in db/db mice.
Description: Mice were fasted 6 h, and tail vein blood was used for glucose measurement with ACCU-CHECK blood glucose meter (Roche Diagnostics, Mannheim, Germany) on a weekly basis for 4 weeks.
Insulin tolerance test. […] After 4 weeks of treatment, both the db-Veh and db-P7C3 treated mice were fasted overnight for GTT assay. GTT was performed by a single dose of intraperitoneal injection of 2 g/kg body weight of D-(+)-glucose (Sigma-Aldrich, MO, USA). Blood samples were obtained by the retro orbital plexus technique. Serum glucose levels were determined prior to glucose administration (0 min) and after 30, 60, 90, and 120 min of glucose injection, using glucose oxidase peroxidase kit (Pointe Scientific Inc., MI. USA) and following manufacturer's instructions. […] The index of the total glucose shift was calculated as the area under the curve (AUC) using trapezium method.
Test [3] deals with db/db mice. Put plainly: Grip strength and voluntary running wheel in db/db mice. The test is classed as in vivo. As to conditions: 4 weeks, vs db-Veh. The protocol:
Grip strength and voluntary running wheel. The fore-limb and hind-limb grip strengths were measured with the use of Chatillon force measurement DFE II grip strength meter (Ametek, Columbus Instruments, OH, USA). The average of five measurements per mice is represented as KGF/kg body weight for both the fore-limb and hind-limb grip strengths measured. The overnight voluntary running wheel experiments were carried out with the Columbus Instruments O297, the CI Multi-Device Interface (Columbus Instruments, OH, USA) per manufacturer's recommendations.

Test [4] deals with db/db mice. Put plainly: Luminex Magpix IP-10 immunoassay of serum. The test is classed as in vivo. As to conditions: vs db-Veh. The protocol:
Luminex Magpix IP-10 (C—X—C motif chemokine ligand 10) immunoassay. The serum inflammatory markers were analysed using a mouse cytokine/chemokine antibody-immobilized premixed 32-plex Luminex magnetic beads based 96-Well plate immunoassay kit (Milliplex Map kit—MCYTMAG-70K-PX32, EMD Millipore Corporation, MA, USA) according to the manufacturer's instruction. Briefly, the serum samples were diluted at 1:2 in the assay buffer and measured in duplicates along with the standards and quality controls. The serum samples were incubated overnight at 4° C. with the magnetic beads. The wells were then washed with wash buffer and incubated with the detection antibodies for 1 h at RT, followed by a streptavidin-phycoerythrin incubation for 30 min at RT. After washing, the plate was run on MAGPIX with xPONENT software. The mean fluorescent intensity data was analysed using a five-parameter logistic curve-fitting Multi Analyst software for calculating the cytokine/chemokine concentrations of the samples (n=6 mice per group).

Test [5] has as its system db/db mice. Put plainly: Electrocardiography in db/db mice. Type of test: in vivo. As to conditions: 10 mg/kg/day i.p., 4 weeks, vs vehicle. The protocol: Electrocardiography (ECG). Mouse ECG recordings were obtained utilizing 2-3% isoflurane/oxygen anesthesia in lead II configuration. ECGs were acquired for a total duration of 15 min, with 1 min recordings obtained at 5-minute intervals. Heart rate was monitored, while ECG traces were acquired using PowerLab system operated with LabChart 7.2 software (AD Instruments, UK). Data were analyzed offline using the ECG module of LabChart 7.2 software, as reported elsewhere. The intervals (ms) of QTc, JT, and ST elevation (mV) were measured. QT interval was measured from the start of the Q peak to the point where the T wave returns to the isoelectric baseline (TP baseline), and heart rate corrected QT (QTc) interval was obtained using the formula (QTc=QT/(RR/100)^1/2).

Test [6] has as its system db/db mice. Put plainly: Ex vivo myofibre contractility and force-frequency relationship of extensor digitorum longus muscle. The test is classed as in vivo. The source says:
Ex vivo myofibre contractility and force-frequency relationship. Animals were euthanized in compliance with University of South Florida IACUC guidelines. The extensor digitorum longus (EDL) muscles of each animal were tied with surgical silk at the proximal and distal tendons and dissected free. Muscles were immediately transferred to a customized vertical organ bath system (Aurora Scientific Inc., Canada) with the suture on the distal tendon clamped in place and that on the proximal tendon tied to a force transducer such that the muscles were positioned between two platinum wirestimulating electrodes. […] Muscles were equilibrated for 10-15 min after which, the optimal muscle length (l0) for each muscle was calculated by adjusting the length until a maximal force response to a single twitch was attained. Following determination of l0, the muscles were subjected to stimulation trains (500 ms duration) of frequencies ranging from 1-125 Hz, 1 per minute to determine the force-frequency relationship (FFR). Stimulation was delivered with a 58800 dual pulse digital stimulator (Grass Products, West Warwick, R.I., USA), and all pulses were 1 ms in duration. The peak forces of each contraction at the different stimulation frequencies were used to plot the FFR. […]

The mark [7] stands for this setting: mice, 1 wk, 5 mg/kg bodyweight/day, i.p.

Each structure is given as a SMILES string.

Turning to `OC(CNc1ccccc1)Cn1c2ccc(Br)cc2c2cc(Br)ccc21` (stereo not shown) [P7C3, 3,6-Dibromo-a-[(phenylamino)methyl]-9H-carbazole-9-ethanol], the “percentage of fibers recovered” value in test [1] (H&E staining at day 7, vs saline treated group) is listed as “higher”. Further, the “centrally placed nuclei (3 or higher number of nuclei)” value in test [1] (day 7, vs saline treated group) is given as “higher”. In test [1] (setting [7]), the “frequency of myofiber number” value is on record as “increased”, the “fusion index (centrally-nucleated fibers)” value is given as “increased” and the “tibialis anterior muscle injury induced by BaCl2” value is “rescued”. For the same compound, the “overall ischemic injury (infarct)” value in the test with C57Bl/6J wildtype hearts (WT hearts perfused post-ischemia with P7C3 3 μM, 60 mins reperfusion) turned out to be 22%. The “reduction of overall infarct size compared with reperfusion alone” value in the test on C57Bl/6J wildtype hearts (post-ischemic exposure, wildtype hearts) was found to be 2.5 fold. For the same compound, in the test with db/db mice [2] (10 mg/kg/day i.p., 4 weeks, 6 h fasting, vs vehicle), the “fasting blood glucose levels” value was “significant decrease”. Moreover, the “circulating blood glucose levels in response to the ITT” value with db/db mice [2] (10 mg/kg/day i.p., 4 weeks, vs db-Veh) is “significantly reduced”. Also, in the test with db/db mice [2] (4 weeks, vs db-Veh), the HOMA-IR entry is reported as “decreased”, the circulating insulin levels result is “increased” and the “β cells function (HOMA-B)” value is “increased”. The “GTT percent AUC” value in the test with db/db mice [2] (trapezium method, vs db-Veh) is “significant decrease”. Further, in the test on db/db mice [3], the fore-limb grip strength entry is listed as “significant increase”, the hind-limb grip strength result is “significant increase” and the “voluntary running wheel distance covered” value is reported as “significant in-crease”. Also, the “serum IP-10 levels” value in the test with db/db mice [4] is given as “significant decrease”. In the test on db/db mice [5], the JT interval result is “significantly attenuated”, the QTc interval result is on record as “significantly attenuated” and the ST elevation entry was “significantly attenuated”. Further, the “reduced EDL force at higher frequencies seen in db-Veh” value with db/db mice [6] (db/db, 4 weeks) was “mitigated”. For the same compound, the “absolute myofibre force frequency area under curve” value in the test with db/db mice [6] (ex vivo EDL, vs db-Veh) is reported as “significant increase”.
